According to US20120232066A1, “COMPOSITIONS FOR REDUCING RISK OF ADVERSE EVENTS CAUSED BY DRUG-DRUG INTERACTIONS” (priority 2011, published 2012):

Experiments:
[1] = Oral administration of Compound PC-1 and SBTI trypsin inhibitor to rats; hydromorphone in blood; conditions: for Cmax (ng/mL HM): hydromorphone in rat blood, PO PC-1 20 mg/kg
Protocol: At specified time points, blood samples were drawn, quenched into methanol, centrifuged at 14,000 rpm @ 4° C., and stored at −80° C. until analysis by high performance liquid chromatography/mass spectrometry (HPLC/MS).

[2] = Oral administration of Compound KC-17 co-dosed with Compound 109 to rats; oxycodone in plasma; type: in vivo, rat; conditions: KC-17 50 mg/kg
Protocol: At specified time points, blood samples were drawn, harvested for plasma via centrifugation at 5,400 rpm at 4° C. for 5 min, and 100 microliters (μl) plasma transferred from each sample into a fresh tube containing 2 μl of 50% formic acid. The tubes were vortexed for 5-10 seconds, immediately placed in dry ice, and then stored in a −80° C. freezer until analysis by HPLC/MS.

[3] = Oral administration of Compound AM-2 and Compound 109 to rats; amphetamine in plasma; type: in vivo, rat; conditions: suppressing Cmax and delaying Tmax
Text: Table 10 and FIG. 10 provide amphetamine exposure results for rats administered with Compound AM-2 and with or without a co-dose of trypsin inhibitor.

With `CC(=O)NC(CCCNC(=N)N)C(=O)NCCN(C)C(=O)Oc1ccc2c3c1OC1C(=O)CCC4C(C2)N(C)CCC314` (stereo not drawn) [Compound PC-1, Hydromorphone 3-(N-methyl-N-(2-N′-acetylarginylamino)) ethylcarbamate] the “Cmax (ng/mL HM)” value ([1]; SBTI 0 mg/kg) was 16.5 ± 5.3 ng/mL, the “Cmax (ng/mL HM)” value ([1]; SBTI 10 mg/kg) was 8.9 ± 1.8 ng/mL and the “Cmax (ng/mL HM)” value ([1]; SBTI 100 mg/kg) was 6.0 ± 4.0 ng/mL. For the same molecule, the “Cmax (ng/mL HM)” value ([1]; SBTI 500 mg/kg) was less than 5 ng/mL and the “Cmax (ng/mL HM)” value ([1]; SBTI 1000 mg/kg) was less than 5 ng/mL.

With `N=C(N)c1ccc2cc(OC(=O)c3ccc(N=C(N)N)cc3)ccc2c1` [Compound 109, 6-carbamimidoylnaphthalen-2-yl 4-(diaminomethyleneamino)benzoate] the “effect of Compound 109 on oxycodone release from Compound KC-17” value [2] was “attenuate release of oxycodone by prodrugs of the embodiments” and the “effect of Compound 109 on amphetamine release from Compound AM-2” value [3] was “ability to attenuate”.

B1: SBTI: trypsin inhibitor from Glycine max (soybean) (Catalog No. 93620, ~10,000 units per mg, Sigma-Aldrich) (protein, UniProt P01070 25-205, looked up)
Trypsin inhibitor A: DFVLDNEGNPLENGGTYYILSDITAFGGIRAAPTGNERCPLTVVQSRNELDKGIGTIISSPYRIRFIAEGHPLSLKFDSFAVIMLCVGIPTEWSVVEDLPEGPAVKIGENKDAMDGWFRLERVSDDEFNNYKLVFCPQQAEDDKCGDIGISIDHDDGTRRLVVSKNKPLVVQFQKLDKESL
For B1, the “effect of SBTI on hydromorphone release from Compound PC-1 into blood” value ([1]; rats PO, PC-1 20 mg/kg and 10, 100, 500 or 1000 mg/kg SBTI) was “suppresses Cmax and delays Tmax” and the “attenuation of Compound PC-1's ability to release hydromorphone” value ([1]; rats PO, PC-1 20 mg/kg, at higher SBTI concentrations) was “approximately 100%”.
